Measured values as given in publication PMC6972607, “L‐Fucose prevention of renal ischaemia/reperfusion injury in Mice” (The FASEB Journal, 2019).

Target: T1, collectin-11 (CL-11, CL-K1) (Homo sapiens, UniProt Q9BWP8)
T1 construct: gene COLEC11; recombinant homo-oligomer generated by expression of the CL-11 cDNA (isoform a)
Assay: competition ELISA, rCL-11 binding to immobilised yeast invertase

T1 sequence (Q9BWP8 26-271): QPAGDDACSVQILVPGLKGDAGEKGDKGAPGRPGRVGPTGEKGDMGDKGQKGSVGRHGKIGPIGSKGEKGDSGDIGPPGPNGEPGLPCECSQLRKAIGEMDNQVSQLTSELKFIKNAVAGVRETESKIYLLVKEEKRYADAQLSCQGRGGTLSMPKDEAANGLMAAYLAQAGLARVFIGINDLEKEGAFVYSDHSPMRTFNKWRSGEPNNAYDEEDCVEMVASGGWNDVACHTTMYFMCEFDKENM

| SMILES | IC50 [mM] |
| --- | --- |
| C[C@@H]1OC(O)[C@@H](O)[C@H](O)[C@@H]1O (stereo partly drawn) [L-fucose] | 12.1 |
| OC[C@H]1OC(O)[C@@H](O)[C@@H](O)[C@@H]1O (stereo partly drawn) [D-mannose] | 11.8 |
